Results from patent US9850493B2, “Biological methods for preparing a fatty dicarboxylic acid” (VERDEZYNE, INC., priority 2012, dated 2017).

Experiment: In vitro acyl-CoA oxidase activity assay of E. coli lysates
Format: biochemical, Candida strain ATCC20336
Details: wild type enzyme, FIG. 21
Text: Acyl-CoA oxidases from a range of organisms were cloned into the E. coli expression vector pET26b (EMD4Biosciences, Darmstadt, Germany), which contains a kanamycin resistance cassette. The source of the acyl-CoA oxidase, the name of the gene, the primers and restriction enzymes used to clone the acyl CoA oxidase coding sequence into pET26b and the coding sequence are described herein. The acyl CoA oxidase coding sequences were amplified by PCR using the appropriate primers designed from cDNA libraries, published cDNA or genomic DNA sequences corresponding to the organism. […]
To express an enzyme, a colony from each transformation of Rosetta cells was used to start a 5 ml overnight culture of LB containing the antibiotics kanamycin (to select for pET26b) and chloramphenicol (to select for a second plasmid found in Rosetta II cells that mediates improved translation of eukaryotic proteins expressed in E. coli) grown at 37° C. The next morning, the overnight culture was used to seed 30 ml of LB containing kanamycin and chloramphenicol to an OD600 reading of 0.1. […]
To test the activity of the acyl CoA oxidase, cells from the overnight induction were pelleted at 1046×g at 4° C. in 50 ml conical tubes. […] The spectrophotometer was set to read for 5 minutes at 500 nm, 30° C. […]

Pox5: wild type acyl CoA oxidase Pox5 from Candida strain ATCC20336
activity on C6 and C8 substrates: low activity
substrate chain length of optimal activity: 12 to 18 carbons
